Source: patent US8834855B2, “Sunscreen compositions comprising carotenoids” (Promar AS, priority 2005, dated 2014)

What was measured:
[1] = Irradiation absorption in an in vitro skin model (Vitro-skin, integrating sphere transmission); settings: Miglyol solvent, compared to a conventional SPF 60 sun lotion
Method: A commercial sunscreen SPF60 was used for comparison. Vitro−skin+miglyol was used as the control. Curve 1: Vitro−skin+Miglyol, 2: SPF60, 3:fucoxanthin at 2.76 mg/ml, 4:fucoxanthin at 0.55 mg/ml, 5:fucoxanthin at 0.25 mg/ml, 6:diadinoxanthin at 0.64 mg/ml, 7:diadinoxanthin at 0.13 mg/ml; and
The concentrations are given as the sum of the given compounds and their degradation products (cis-fucoxanthin and diadinochrome). Solid lines with squares—diadinoxanthin. Solid line with diamonds—fucoxanthin. Dashed lines illustrate a projected linear relationship.
The in vitro method of Springsteen was used (Springsteen et al., 1999, Analytica Chimica Acta, 380, p155-164). Vitro-skin was used as the skin simulator and Miglyol (Miglyol 812F Neutraloel CHG. 040906) was used as the solvent. The tests were performed with a Varian Cary 300 Conc UV-Visible Spectrophotometer (with an integrating sphere). Fucoxanthin and diadinoxanthin (isolated as described in Example 2) were tested at the concentrations indicated on FIG. 3.

[2] = Phase distribution of carotenoids in water-ethanol/heptane extraction at different water levels; format: physicochemical; settings: room temperature, no pH adjustment
Method: (§1) Extraction is performed in a nitrogen atmosphere in equipment covered with aluminium foil. • 1. The pH of a water suspension of the microalgae P. tricornutum (14 g dry weight per liter of water) was adjusted to 8.3 and ethanol was added to a final ratio of water:ethanol=0.3:1.0. • 2. The water-ethanol solution was extracted by mixing with heptane (water-ethanol solution:heptane=1.3:1.0) for 1 hour at 20° C. • 3. The solution was separated into three phases by centrifugation (10 minutes at 3222×g): An upper heptane phase enriched in diadinoxanthin and fucoxanthin, a lower ethanol-water phase enriched in chlorophylls and degradation products of chlorophylls, and a third mid-phase with precipitated materials. The ratio of the concentration of diadinoxanthin to fucoxanthin in the water-ethanol phase was approximately 1:6. • 4. Water was added to the water-ethanol phase until a water:ethanol ratio of 0.7:1.0 was reached. This solution was extracted by a similar amount of heptane and the phases separated by centrifugation (as in step 3). Diadinoxanthin was enriched in the heptane phase (diadinoxanthin:fucoxanthin=1:1), and fucoxanthin and fucoxanthin-derivatives in the ethanol-water phase. • 5. The heptane phase was stored overnight at −20° C. to separate fucoxanthin which was separated by centrifugation as described above. (Alternatively, the precipitated material may be removed with a pipette.) • 6. The heptane phase was used for further purification of diadinoxanthin by HPLC as described hereinbefore to yield […] of the diadinoxanthin found in the starting material. Optimization
Various parameters in the above described basic method were varied to establish the effect of water concentration, pH and temperature on the isolation method.
The method was performed at room temperature without pH adjustment.

[3] = Effects of temperature and pH on separation of diadinoxanthin from fucoxanthin (water:ethanol phase extracted with heptane); format: physicochemical
Method: as §1
(§2) Values indicated are for the amount of each compound in the indicated phase. The value in brackets indicates the % distribution between the two phases.

[4] = Effects of temperature on extraction for 200 minutes, water:ethanol:heptane 1:1:1, pH 11; format: physicochemical; settings: for amount in phase after extraction: 1:1:1, pH 11
[5] = Recovery of initial amount after extraction at different temperature and pH (stability); format: physicochemical
Description: as §2

[6] = water:EtOH:heptane 0:1:1, heptane phase
[7] = water:EtOH:heptane 0:1:1, water-EtOH phase
[8] = water:EtOH:heptane 0.1:1:1, heptane phase
[9] = water:EtOH:heptane 0.1:1:1, water-EtOH phase
[10] = water:EtOH:heptane 0.2:1:1, heptane phase
[11] = water:EtOH:heptane 0.2:1:1, water-EtOH phase
[12] = water:EtOH:heptane 0.4:1:1, heptane phase
[13] = water:EtOH:heptane 0.4:1:1, water-EtOH phase
[14] = NaOH-buffer, pH 12.2, 50° C., Heptane phase
[15] = NaOH-buffer, pH 12.2, 50° C., Water-EtOH phase
[16] = Phosphate, pH 11, 20° C., Heptane phase
[17] = Phosphate, pH 11, 20° C., Water-EtOH phase
[18] = Phosphate, pH 11, 50° C., Heptane phase
[19] = Phosphate, pH 11, 50° C., Water-EtOH phase

CC(=O)O[C@H]1CC(C)(C)C(=C=C/C(C)=C/C=C/C(C)=C/C=C/C=C(C)/C=C/C=C(\C)C(=O)C[C@@]23O[C@]2(C)C[C@@H](O)CC3(C)C)[C@](C)(O)C1 [fucoxanthin]
ability to absorb irradiation [1]: ability to absorb irradiation, particularly in the blue light range of the spectrum, but also in the upper UVA area | phase distribution [2, 6]: 7% | phase distribution [2, 7]: 93% | phase distribution [2, 8]: 49% | phase distribution [2, 9]: 51% | phase distribution [2, 10]: 2% | phase distribution [2, 11]: 98% | phase distribution [2, 12]: 3% | phase distribution [2, 13]: 97% | % distribution between the two phases [3, 14]: 0 (0%) | amount of compound in phase [3, 14]: 0 (0%) | % distribution between the two phases [3, 15]: 0 (0%) | amount of compound in phase [3, 15]: 0 (0%) | % distribution between the two phases [3, 16]: 95% | amount of compound in phase [3, 16]: 4860 | % distribution between the two phases [3, 17]: 5% | amount of compound in phase [3, 17]: 260 | % distribution between the two phases [3, 18]: 95% | amount of compound in phase [3, 18]: 2745 | % distribution between the two phases [3, 19]: 5% | amount of compound in phase [3, 19]: 135 | stability at various temperatures ([4]; 20, 35, 50 °C, pH 11): more sensitive to higher temperatures | amount in phase after extraction ([4]; 20 °C, Heptane phase): 1065 | amount in phase after extraction ([4]; 20 °C, Water-EtOH phase): 380 | amount in phase after extraction ([4]; 35 °C, Heptane phase): 610 | amount in phase after extraction ([4]; 35 °C, Water-EtOH phase): 210 | amount in phase after extraction ([4]; 50 °C, Heptane phase): 95 | amount in phase after extraction ([4]; 50 °C, Water-EtOH phase): 0 | Total present in both phases ([5]; NaOH-buffer, pH 12.2, 50° C.): 0 | Total present in both phases ([5]; Phosphate, pH 11, 20° C.): 5120 | Total present in both phases ([5]; Phosphate, pH 11, 50° C.): 2880 | stability under the temperature and pH conditions used ([5]; pH 11 to 12.2, 20 to 50° C.): more sensitive to extreme temperatures and pH

CC1=C(C#C/C(C)=C/C=C/C(C)=C/C=C/C=C(C)/C=C/C=C(C)/C=C/[C@@]23O[C@]2(C)C[C@@H](O)CC3(C)C)C(C)(C)C[C@H](O)C1 [diadinoxanthin]
ability to absorb irradiation [1]: ability to absorb irradiation, particularly in the blue light range of the spectrum, but also in the upper UVA area | phase distribution [2, 6]: 12% | phase distribution [2, 7]: 88% | phase distribution [2, 8]: 93% | phase distribution [2, 9]: 7% | phase distribution [2, 10]: 6% | phase distribution [2, 11]: 94% | phase distribution [2, 12]: 22% | phase distribution [2, 13]: 78% | % distribution between the two phases [3, 14]: 100% | amount of compound in phase [3, 14]: 1440 | % distribution between the two phases [3, 15]: 0 (0%) | amount of compound in phase [3, 15]: 0 (0%) | % distribution between the two phases [3, 16]: 100% | amount of compound in phase [3, 16]: 1500 | % distribution between the two phases [3, 17]: 0 (0%) | amount of compound in phase [3, 17]: 0 (0%) | % distribution between the two phases [3, 18]: 100% | amount of compound in phase [3, 18]: 1470 | % distribution between the two phases [3, 19]: 0 (0%) | amount of compound in phase [3, 19]: 0 (0%) | amount in phase after extraction ([4]; 20 °C, Heptane phase): 1155 | amount in phase after extraction ([4]; 20 °C, Water-EtOH phase): 170 | amount in phase after extraction ([4]; 35 °C, Heptane phase): 1260 | amount in phase after extraction ([4]; 35 °C, Water-EtOH phase): 180 | amount in phase after extraction ([4]; 50 °C, Heptane phase): 1310 | amount in phase after extraction ([4]; 50 °C, Water-EtOH phase): 190 | Total present in both phases ([5]; NaOH-buffer, pH 12.2, 50° C.): 1440 | Total present in both phases ([5]; Phosphate, pH 11, 20° C.): 1500 | Total present in both phases ([5]; Phosphate, pH 11, 50° C.): 1470 | stability under the temperature and pH conditions used ([5]; pH 11): stable under the conditions used

C=Cc1c(C)c2cc3nc(c4c5[n-]c(cc6nc(cc1[n-]2)C(C)=C6CC)c(C)c5C(=O)[C@@H]4C(=O)OC)[C@@H](CCC(=O)OC/C=C(\C)CCC[C@H](C)CCC[C@H](C)CCCC(C)C)[C@@H]3C.[Mg+2] [Chl a, chlorophyll a]
phase distribution [2, 6]: 45% | phase distribution [2, 7]: 55% | phase distribution [2, 8]: 100% | phase distribution [2, 9]: 0% | phase distribution [2, 10]: 93% | phase distribution [2, 11]: 7% | phase distribution [2, 12]: 100% | phase distribution [2, 13]: 0% | amount in phase after extraction ([4]; 20 °C, Heptane phase): 3290 | amount in phase after extraction ([4]; 20 °C, Water-EtOH phase): 0 | amount in phase after extraction ([4]; 35 °C, Heptane phase): 3505 | amount in phase after extraction ([4]; 35 °C, Water-EtOH phase): 0 | amount in phase after extraction ([4]; 50 °C, Heptane phase): 4010 | amount in phase after extraction ([4]; 50 °C, Water-EtOH phase): 0
